Test results published in ChEMBL document CHEMBL4177620, “A comparative study of warheads for design of cysteine protease inhibitors” (Bioorg Med Chem Lett, 2017).
The source made the active and inactive calls. The calls are words filed in the database; no cut-off is given here. Non-standard residues stand in square brackets, D forms with d. Residues, ends and D or L forms follow the SMILES beside them. *: point of attachment. Cbz = O=C(OCc1ccccc1)*; Ac3c = NC1(C(=O)O)CC1

Assays:
[1] = molecular target: Cruzipain (Trypanosoma cruzi) (UniProt P25779); assay: Inhibition of recombinant Trypanosoma cruzi cruzain assessed as dissociation rate constant using Z-phe-Arg-7-amido-4-methylcoumarin as substrate by fluorometric method
Cruzipain (Trypanosoma cruzi), sequence (P25779 123-467 limits assumed): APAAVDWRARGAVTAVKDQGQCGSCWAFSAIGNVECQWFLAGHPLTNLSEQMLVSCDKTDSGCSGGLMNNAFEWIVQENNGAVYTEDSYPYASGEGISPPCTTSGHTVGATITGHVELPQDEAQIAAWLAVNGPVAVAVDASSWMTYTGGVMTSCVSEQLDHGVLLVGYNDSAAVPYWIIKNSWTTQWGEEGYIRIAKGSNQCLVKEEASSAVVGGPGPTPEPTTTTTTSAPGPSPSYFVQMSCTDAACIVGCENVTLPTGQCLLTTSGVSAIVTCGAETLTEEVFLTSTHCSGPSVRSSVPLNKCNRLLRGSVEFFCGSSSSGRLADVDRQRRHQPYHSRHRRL

Cruzipain = Cruzipain (Trypanosoma cruzi, UniProt P25779); assay: Inhibition of recombinant Trypanosoma cruzi cruzain using Z-phe-Arg-7-amido-4-methylcoumarin as substrate by fluorometric method
Cruzipain, sequence (P25779 whole entry): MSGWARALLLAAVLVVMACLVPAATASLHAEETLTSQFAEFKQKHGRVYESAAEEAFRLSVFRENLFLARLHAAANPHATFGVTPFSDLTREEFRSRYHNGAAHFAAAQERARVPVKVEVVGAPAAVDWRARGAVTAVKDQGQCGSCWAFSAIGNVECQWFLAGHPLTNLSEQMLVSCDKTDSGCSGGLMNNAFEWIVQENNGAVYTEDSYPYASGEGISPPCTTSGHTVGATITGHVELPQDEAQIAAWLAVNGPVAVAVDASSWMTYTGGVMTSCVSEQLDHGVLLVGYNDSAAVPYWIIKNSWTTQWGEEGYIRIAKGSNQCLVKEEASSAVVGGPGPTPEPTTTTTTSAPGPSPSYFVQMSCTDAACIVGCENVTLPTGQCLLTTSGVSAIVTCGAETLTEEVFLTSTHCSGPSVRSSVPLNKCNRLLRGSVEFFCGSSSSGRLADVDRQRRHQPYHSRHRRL

[2] = molecular target: Cruzipain (Trypanosoma cruzi) (UniProt P25779); assay: Reversible inhibition of recombinant Trypanosoma cruzi cruzain using Z-phe-Arg-7-amido-4-methylcoumarin as substrate by fluorometric method
Trypanosoma cruzi = assay: Antitrypanosomal activity against amastigote form of Trypanosoma cruzi Y infected in human U2OS cells; assay type: functional, organism-based
[3] = Cytotoxicity against human U2OS cells; assay type: cell-based
[4] = molecular target: Cruzipain (Trypanosoma cruzi) (UniProt P25779); assay: Ratio of Kinact to Ki for recombinant Trypanosoma cruzi cruzain using Z-phe-Arg-7-amido-4-methylcoumarin as substrate
[5] = molecular target: Cruzipain (Trypanosoma cruzi) (UniProt P25779); assay: Irreversible inhibition of recombinant Trypanosoma cruzi cruzain using Z-phe-Arg-7-amido-4-methylcoumarin as substrate by fluorometric method

Row | koff [1] [s⁻¹] | inhibition [2] | Ratio [4] [×10³ /s/M] | inhibition [5] | SMILES | Ki (Cruzipain) [µM] | EC50 (Trypanosoma cruzi) [µM] | CC50 [3] [µM]
1 | 0.012 | – | – | – | CN(C#N)N(C)C(=O)[C@H](Cc1ccccc1)NC(=O)c1cc(C(C)(C)C)nn1C | 0.00158 | – | –
2 | – | Active | – | – | N#CCNC(=O)[C@H](Cc1ccccc1)NC(=O)OCc1ccccc1 | – | > 100 | > 100
3 | – | Active | – | – | O=C(N[C@@H](Cc1ccccc1)C(=O)NCC=NO)OCc1ccccc1 | 0.1 | – | –
4 | – | – | – | – | N#CC1(NC(=O)[C@H](Cc2ccccc2)NC(=O)OCc2ccccc2)CC1 | 6.31 | > 100 | > 100
5 | 0.0053 | Active | – | – | CC(C)C[C@H](NC(=O)OC(C)(C)C)C(=O)N(C)N(C)C#N | 0.01 | 39.8 | 50.1
6 | – | Active | – | – | CCOC(=O)/C=C\CNC(=O)[C@H](Cc1ccccc1)NC(=O)OCc1ccccc1 | 6.31 | – | –
7 | – | – | – | – | O=CC1(NC(=O)[C@H](Cc2ccccc2)NC(=O)OCc2ccccc2)CC1 (Cbz-Phe-[Ac3c]-aldehyde) | 3.98 | – | –
8 | – | – | – | – | O=C(N[C@@H](Cc1ccccc1)C(=O)Nc1cnoc1)OCc1ccccc1 | 10 | > 100 | > 100
9 | – | – | – | – | Cc1coc(NC(=O)[C@H](Cc2ccccc2)NC(=O)OCc2ccccc2)n1 | 25.1 | 39.8 | > 100
10 | – | – | – | – | CC(C)C[C@H](NC(=O)c1cc(C(C)(C)C)nn1C)C(=O)N(C)N(C)C#N | – | 12.6 | –
11 | – | Active | – | – | O=CCNC(=O)[C@H](Cc1ccccc1)NC(=O)OCc1ccccc1 (Cbz-Phe-Gly-aldehyde) | 0.00794 | – | –
12 | – | – | 9.8 | Active | CCOC(=O)/C=C/CNC(=O)[C@H](Cc1ccccc1)NC(=O)OCc1ccccc1 | 1.58 | – | –

Row | SMILES | koff [1] [s⁻¹] | inhibition [2] | Ratio [4] [×10³ /s/M] | inhibition [5] | Ki (Cruzipain) [µM] | EC50 (Trypanosoma cruzi) [µM] | CC50 [3] [µM]
13 | CCN(CC)C(=O)/C=C/C1(NC(=O)[C@H](Cc2ccccc2)NC(=O)OCc2ccccc2)CC1 | – | Active | – | – | 200 | – | –
14 | CNC(=O)/C=C/C1(NC(=O)[C@H](Cc2ccccc2)NC(=O)OCc2ccccc2)CC1 | – | Active | – | – | 398 | – | –
15 | CCOC(=O)/C=C/C1(NC(=O)[C@H](Cc2ccccc2)NC(=O)OCc2ccccc2)CC1 | – | Active | – | – | 126 | – | –
16 | CN(C#N)N(C)C(=O)[C@H](Cc1ccccc1)NC(=O)OCc1ccccc1 | 0.011 | Active | – | – | 0.002 | 5.01 | 10
